Data published in US5229410A, “6-substituted-hexahydrobenz[cd]indoles” (Eli Lilly and Company, priority 1991, dated 1993).

Target: T1, serotonin 1A receptor (Rattus norvegicus, UniProt P19327)
T1 construct: from tissue; host or cells: cerebral cortex of male Sprague-Dawley rats (synaptosomal membranes)
T1 sequence (P19327 1-422): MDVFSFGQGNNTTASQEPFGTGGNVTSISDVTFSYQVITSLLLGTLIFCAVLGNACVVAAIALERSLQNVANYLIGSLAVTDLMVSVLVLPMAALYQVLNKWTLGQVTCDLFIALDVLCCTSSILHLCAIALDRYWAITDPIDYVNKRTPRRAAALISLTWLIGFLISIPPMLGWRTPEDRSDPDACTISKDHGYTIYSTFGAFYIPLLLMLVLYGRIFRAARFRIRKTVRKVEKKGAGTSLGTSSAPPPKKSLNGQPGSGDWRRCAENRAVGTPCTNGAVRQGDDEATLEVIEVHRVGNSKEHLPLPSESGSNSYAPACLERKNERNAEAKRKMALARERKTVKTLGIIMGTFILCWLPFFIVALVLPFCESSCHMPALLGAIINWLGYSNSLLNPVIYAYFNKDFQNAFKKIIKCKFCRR
Assay: serotonin 1A receptor binding (3H-8-OH-DPAT, rat cerebral cortex synaptosomal membranes)
Set-up: species or system Male Sprague-Dawley rats
Details: 0.4 nM 3H-8-OH-DPAT, pH 7.4, 37° C., 10 min, read-out: IC50 (concentration necessary to inhibit the binding of 3H-8-OH-DPAT by 50%)
Procedure: The compound of Example 14 was evaluated for its ability to interact with serotonin 1A receptor using the following procedure which is generally set forth in Wong et al., J. Neural Transm., 71, 207-218 (1988). Male Sprague-Dawley rats (110-150 g) from Harlan Industries (Cumberland, Ill.) were fed a Purina Chow ad libitum for at least 3 days before being used in the studies. Rats were killed by decapitation. The brains were rapidly removed, and the cerebral cortices were dissected out at 4° C.
Brain tissues were homogenized in 0.32M sucrose. After centrifugation at 1000×g for 10 min and then at 17,000×g for 20 min, a crude synaptosomal fraction was sedimented. The pellet was suspended in 100 vol of 50 mM Tris-HCl, pH 7.4, incubated at 37° C. for 10 min, and centrifuged at 50,000×g for 10 min. The process was repeated and the final pellet was suspended in ice-chilled 50 mM Tris-HCl, pH 7.4. […]
Binding of (^3 H-8-OH-DPAT) was performed according to the previously described method [Wong et al., J. Neural Transm. […] Radioactivity was measured with a liquid scintillation spectrometer. […] Specific binding of ^3 H-8-OH-DPAT is defined as the difference of radioactivity bound in the absence and in the presence of 10 μM unlabeled 8-OH-DPAT. […]

SMILES: C#Cc1ccc2c3c1C[C@H](N(CCC)CCC)C[C@@H]3CN2 [Example 14, (2aS,4R)-6-ethynyl-4-(di-n-propylamino)-1,2,2a,3,4,5-hexahydrobenz[cd]indole]
- IC50: 0.5 nM
